Assay results reported in patent publication US20230321101A1, “METHODS AND USES OF HALOFUGINONE” (The Regents of the University of California, priority 2020, published 2023).
pEC50, pIC50: −log10 of the molar value. Values joined by “and” are separate entries in the source; they are usually repeats but may differ in a detail not shown here. Equal values may be shown once. “Also recorded” adds a separate entry of the source. Read-outs that look alike come from different tables or passages of the source.

Assays:
[1] = tested on: recombinant SARS-CoV-2 spike RBD protein binding to Hep3B cells
[2] = tested on: cell surface heparan sulfate of Hep3B cells; experiment: Heparan sulfate presentation by anti-HS mAb 10E4 staining of Hep3B cells; format: cell-based, human
clinical = settings: human, in vivo, po
[3] = tested on: SARS-CoV-2 spike protein pseudotyped VSV; format: cell-based
authentic SARS-CoV-2 [4] = format: cell-based
SARS-CoV-2 spike RNA = experiment: microbe, parasite or virus in culture; format: cell-based; settings: Vero E6
[5] = human, cited from earlier work
[6] = tested on: heparan sulfate of Hep3B cells; experiment: HS content and disaccharide analysis by LC-MS in Hep3B cells; format: cell-based, human
authentic SARS-CoV-2 [7] = format: cell-based; remark: listed apart in the source
HIV-1 = HIV-1 antiviral immunofluorescence assay in HeLa Tzmbl cells; format: cell-based; settings: Human immunodeficiency virus 1, read-out: EC50 HIV-1
Protocol: (§1) Experimental Procedure. The antiviral activity of 8 dilutions of each compound was explored by adding the drug to the assay cells 2 h after infection with the different viruses. Virus and compounds were left on the cells for the entire duration of the experiment (28 h for Zika virus and 24 h for all other viruses). The cytotoxicity of the same range of concentrations of compounds was determined by LDH release assay in the same cell lines.
(§2) Cell plating. Cells were detached and counted following SOP-RA 003 and SOP-RA 004. Count was recorded in the Cell Count Logbook, Volume 1. For each virus four plates were seeded, two for the antiviral assay and two for the cytotoxicity assay. Cells were seeded in 100 μl/well of complete media at the following densities: • Huh7: 8,000 cells/well (Dengue) • SH-SY5Y: 10,000 cells/wells (Zika) • HeLa Tzmbl: 8,000 cells/well (HIV)
(§3) Compounds dilutions. The 22.1 mM stocks were further diluted to 1 mM in DMSO by adding 211 μl of DMSO to 10 μl of compound. Three serial dilutions were prepared in different media for different viruses/cells. For each dilution, drugs were prepared at twice the final concentration in 50 μl volume, because they are diluted to the final concentration by an equal volume of virus or media.
(§4) Infection. Cells were infected in 50 μl of supplemented media/well at the following multiplicity of infection (MOI): • DENV-2, MOI 1 • ZIKV, MOI 5 • HIV, MOI 0.5
(§5) After removing culture media from cells, 50 μl of virus dilution were added to all wells except Column 11 (uninfected control), where the same volume of supplemented media was added. […]
(§6) Infectivity readout. […] The primary antibodies were detected with an Alexa-488 conjugate secondary antibody (Life Technologies, A11001), and nuclei were stained with Hoechst. Images were acquired on a CellInsight CX5 high content platform (Thermo Scientific) using a 4× objective, and percentage infection calculated using CellInsight CX5 software (infected cells/total cells×100).
(§7) Determination of % Inhibition—IF assay. Normalized percentages of inhibition were calculated using the following formula: […]

[8] = tested on: Hep3B cells transcriptome; experiment: RNA-Seq of Hep3B cells treated with halofuginone; format: cell-based, human
[9] = tested on: recombinant SARS-CoV-2 spike RBD protein binding to Caco-2 cells
hepcidin expression = experiment: Hepcidin expression in Hep3B human hepatocytes; format: cell-based
Protocol: FIG. 6. Hep3B—18 hr incubation.
FIG. 7. Hep3B—24 hr incubation.

DENV-2 (Dengue) = experiment: DENV-2 antiviral immunofluorescence assay in Huh7 cells; format: cell-based; settings: Dengue virus, DENV2, Huh-7, read-out: EC50 DENV-2
Protocol: as §1, §2, §3, §4, §5, §6, §7

ZIKV (Zika virus) = experiment: ZIKV antiviral immunofluorescence assay in SH-SY5Y cells; format: cell-based; settings: Zika virus, read-out: EC50 ZIKV
Protocol: as §1, §2, §3, §4, §5, §6, §7

authentic SARS-CoV-2 [10] = experiment: microbe, parasite or virus in culture; format: cell-based

O=C(CC1NCCCC1O)Cn1cnc2cc(Br)c(Cl)cc2c1=O (racemic) [halofuginone]
decrease of SARS-CoV-2 RBD binding compared to excipient control (DMSO) ([1]; 1 μM, 18 h): 84% | inhibition of spike RBD protein binding with excess proline ([1]; 4 mM proline in the media): prevented the ability of halofuginone to inhibit spike RED protein binding | effect on spike (RBD) protein binding ([1]; listed as Halofuginone): reduced spike RBD protein binding | effect on heparan sulfate presentation (10E4 binding) ([2]; listed as Halofuginone): dose-dependently reduced 10E4 binding; also recorded: dose-dependently reduced the presence of cell surface heparan sulfate | effect on heparan sulfate presentation (10E4 binding) ([2]; listed as halofuginone (MAZ1392)): reduced heparan sulfate presentation | Cmax (clinical; 0.5 mg): ~1.3 nM | Cmax (clinical; 3.5 mg): ~7.4 nM | inhibition of pseudotyped VSV infection [3]: about 30 fold | decrease of viral RNA levels (authentic SARS-CoV-2 [4]): 10- to 100 fold | intracellular viral RNA (authentic SARS-CoV-2 [4]): did not change | reduction of SARS-CoV-2 infectivity (authentic SARS-CoV-2 [4]): 3 Log and 4 Log | reduction of secreted infectious virions (authentic SARS-CoV-2 [4]): ~1000 fold | virus in plaque assays (authentic SARS-CoV-2 [4]; HuH 7.5, doses above 100 nM): No virus was detected in plaque assays | productive infection (authentic SARS-CoV-2 [4]; Huh 7.5, 100 nM): prevented productive infection | reduction of SARS-CoV-2 infection (viral titers) (authentic SARS-CoV-2 [4]; Huh 7.5, 100 nM, pretreatment alone): ~30 fold | pIC50 (SARS-CoV-2 spike RNA; Severe acute respiratory syndrome coronavirus 2, Vero C1008, read-out: IC50 of SARS-CoV-2 spike intracellular mRNA levels): 7.46 | reduction of SARS-CoV-2 spike intracellular mRNA levels (SARS-CoV-2 spike RNA): more than 20,000 fold | accumulation, exposure by day 15 of dosing ([5]; phase I): two- to three-fold higher exposure | half-life ([5]; phase I): ~3 h | oral bioavailability ([5]; phase I): orally bioavailable | average Cmax ([5]; single oral administration of 0.5 mg): 0.54 ng/mL | average Cmax ([5]; single oral administration of 3.5 mg): 3.09 ng/mL | disaccharide composition of HS [6]: No difference was seen in the disaccharide composition | reduction of cell surface HS ([6]; 0.5 μM): ~4 fold | infectious SARS-CoV-2 in supernatants (plaque assay) (authentic SARS-CoV-2 [7]): No infectious SARS-CoV-2 could be detected; also recorded: No virus was detected | pEC50 (HIV-1): 7.63 | ATF4-mediated integrated stress response (ISR) ([8]; Hep3B RNA-Seq): induced a general ATF4-mediated ISR | expression of host factors exploited by SARS-CoV-2, TMPRSS2 and ACE2 ([8]; Hep3B RNA-Seq): No significant difference in expression | mRNA of HSPGs GPC2 (GPC1) and SDC1 with HS biosynthetic enzymes B3GAT3 and EXTL3 ([8]; Hep3B RNA-Seq): significantly downregulated | unfolded protein-induced ER stress response ([8]; Hep3B RNA-Seq): did not activate the unfolded protein-induced ER stress response | differentially expressed genes ([8]; Hep3B, 200 or 500 nM, 6 h and 18 h): ~2700 genes | effect on spike (RBD) protein binding [9]: dose-dependently inhibited spike protein binding | effect on spike (RBD) protein binding ([9]; listed as Halofuginone): reduced spike RBD protein binding | basal hepcidin expression (hepcidin expression; 18 hr incubation): inhibits basal hepcidin expression | BMP6 induced expression of hepcidin (hepcidin expression; 24 hr incubation): inhibits BMP6 induced expression of hepcidin | pEC50 (DENV-2 (Dengue)): 7.45 | pEC50 (ZIKV (Zika virus)): 7.66 | pIC50 (authentic SARS-CoV-2 [10]; Severe acute respiratory syndrome coronavirus 2, Vero C1008, Vero E6, excess proline in the media (4 mM), read-out: IC50 of SARS-CoV-2 infection, proline rescue experiment): 6.68 | pIC50 (authentic SARS-CoV-2 [10]; Severe acute respiratory syndrome coronavirus 2, Vero C1008, Vero E6, without excess proline, read-out: IC50 of SARS-CoV-2 infection, proline rescue experiment): 7.90 | pIC50 (authentic SARS-CoV-2 [10]; Severe acute respiratory syndrome coronavirus 2, Vero C1008, Vero E6, read-out: IC50 of SARS-CoV-2 infectivity, enantiomer comparison): 7.55 | pIC50 (authentic SARS-CoV-2 [10]; Severe acute respiratory syndrome coronavirus 2, Vero C1008, read-out: IC50 of SARS-CoV-2 infection): 7.89 | effect on authentic SARS-CoV-2 infection (authentic SARS-CoV-2 [10]; Vero E6): inhibit SARS-CoV-2 infection | potency compared to chloroquine (authentic SARS-CoV-2 [10]; Vero E6): 100 fold | inhibition of SARS-CoV-2 infectivity (authentic SARS-CoV-2 [10]; Vero E6, 50 nM): completely inhibited SARS-CoV-2 infectivity | inhibition of SARS-CoV-2 infectivity (authentic SARS-CoV-2 [10]; Vero E6, doses greater than 10 nM): complete inhibition of SARS-CoV-2 infectivity
